Measurements as given in BigSolDB 2.1.

C[C@H]1[C@H](OC(=O)CCC(=O)O)O[C@@H]2O[C@@]3(C)CC[C@H]4[C@H](C)CC[C@@H]1[C@@]24OO3
Details | solubility (mole fraction)
in ethanol, 283.06 K | 0.0113
in ethanol, 288.14 K | 0.0136
in ethanol, 293.19 K | 0.0168
in ethanol, 298.24 K | 0.0208
in ethanol, 303.21 K | 0.0263
in ethanol, 308.16 K | 0.0334
in ethanol, 313.14 K | 0.0423
in ethanol, 318.22 K | 0.0536
in ethanol, 323.2 K | 0.0657
in ethyl acetate, 283.17 K | 0.0199
in ethyl acetate, 288.17 K | 0.0221
in ethyl acetate, 293.16 K | 0.0246
in ethyl acetate, 298.14 K | 0.0278
in ethyl acetate, 303.17 K | 0.0309
in ethyl acetate, 308.14 K | 0.0344
in ethyl acetate, 313.17 K | 0.0382
in ethyl acetate, 318.16 K | 0.0423
in ethyl acetate, 323.19 K | 0.0473
in isobutanol, 283.14 K | 0.00543
in isobutanol, 288.07 K | 0.00698
in isobutanol, 293.14 K | 0.00912
in isobutanol, 298.1 K | 0.0118
in isobutanol, 303.05 K | 0.0155
in isobutanol, 308.08 K | 0.0196
in isobutanol, 313.07 K | 0.0252
in isobutanol, 318.05 K | 0.0325
in isobutanol, 323.15 K | 0.0408
in isopentanol, 283.16 K | 0.00573
in isopentanol, 288.17 K | 0.00721
in isopentanol, 293.14 K | 0.00915
in isopentanol, 298.16 K | 0.0119
in isopentanol, 303.16 K | 0.0151
in isopentanol, 308.14 K | 0.0194
in isopentanol, 313.17 K | 0.0244
in isopentanol, 318.16 K | 0.031
in isopentanol, 323.16 K | 0.0397
in isopropanol, 283.06 K | 0.00541
in isopropanol, 288.14 K | 0.00717
in isopropanol, 293.19 K | 0.00965
in isopropanol, 298.24 K | 0.012
in isopropanol, 303.21 K | 0.016
in isopropanol, 308.16 K | 0.0209
in isopropanol, 313.14 K | 0.0276
in isopropanol, 318.22 K | 0.0362
in isopropanol, 323.2 K | 0.047
in isopropyl acetate, 283.17 K | 0.0122
in isopropyl acetate, 288.19 K | 0.0135
in isopropyl acetate, 293.2 K | 0.0149
in isopropyl acetate, 298.14 K | 0.0167
in isopropyl acetate, 303.19 K | 0.0186
in isopropyl acetate, 308.16 K | 0.0206
in isopropyl acetate, 313.14 K | 0.0229
in isopropyl acetate, 318.14 K | 0.0258
in isopropyl acetate, 323.2 K | 0.029
in methyl propionate, 283.19 K | 0.0207
in methyl propionate, 288.22 K | 0.0232
in methyl propionate, 293.23 K | 0.0258
in methyl propionate, 298.17 K | 0.0286
in methyl propionate, 303.23 K | 0.0318
in methyl propionate, 308.14 K | 0.0355
in methyl propionate, 313.24 K | 0.0395
in methyl propionate, 318.16 K | 0.0442
in methyl propionate, 323.18 K | 0.0497
in n-butanol, 283.14 K | 0.00719
in n-butanol, 288.07 K | 0.00886
in n-butanol, 293.14 K | 0.0112
in n-butanol, 298.1 K | 0.0143
in n-butanol, 303.05 K | 0.0181
in n-butanol, 308.08 K | 0.0233
in n-butanol, 313.07 K | 0.0298
in n-butanol, 318.05 K | 0.0379
in n-butanol, 323.15 K | 0.0485
in n-butyl acetate, 283.17 K | 0.012
in n-butyl acetate, 288.19 K | 0.0135
in n-butyl acetate, 293.2 K | 0.015
in n-butyl acetate, 298.14 K | 0.0168
in n-butyl acetate, 303.19 K | 0.0191
in n-butyl acetate, 308.16 K | 0.0213
in n-butyl acetate, 313.14 K | 0.0237
in n-butyl acetate, 318.14 K | 0.0269
in n-butyl acetate, 323.2 K | 0.0304
in n-pentanol, 283.23 K | 0.0111
in n-pentanol, 288.23 K | 0.0137
in n-pentanol, 293.29 K | 0.017
in n-pentanol, 298.5 K | 0.0216
in n-pentanol, 303.24 K | 0.0266
in n-pentanol, 308.02 K | 0.0328
in n-pentanol, 313.08 K | 0.0408
in n-pentanol, 318.05 K | 0.0491
in n-pentanol, 323.1 K | 0.0594
in n-pentyl acetate, 283.14 K | 0.00918
in n-pentyl acetate, 288.24 K | 0.0104
in n-pentyl acetate, 293.3 K | 0.0117
in n-pentyl acetate, 298.28 K | 0.0133
in n-pentyl acetate, 303.24 K | 0.0149
in n-pentyl acetate, 308.22 K | 0.0168
in n-pentyl acetate, 313.13 K | 0.0191
in n-pentyl acetate, 318.18 K | 0.0216
in n-pentyl acetate, 323.24 K | 0.0244
in n-propanol, 283.14 K | 0.00832
in n-propanol, 288.07 K | 0.0103
in n-propanol, 293.14 K | 0.013
in n-propanol, 298.08 K | 0.0163
in n-propanol, 303.02 K | 0.0207
in n-propanol, 308.05 K | 0.0264
in n-propanol, 313.03 K | 0.034
in n-propanol, 318.05 K | 0.0427
in n-propanol, 323.05 K | 0.0542
in n-propyl acetate, 283.16 K | 0.0159
in n-propyl acetate, 288.24 K | 0.0176
in n-propyl acetate, 293.16 K | 0.0194
in n-propyl acetate, 298.18 K | 0.0216
in n-propyl acetate, 303.16 K | 0.024
in n-propyl acetate, 308.16 K | 0.0269
in n-propyl acetate, 313.18 K | 0.0302
in n-propyl acetate, 318.16 K | 0.0336
in n-propyl acetate, 323.16 K | 0.0375
